Data published in ChEMBL document CHEMBL5634124, “Discovery and optimization of indirubin derivatives as novel ferroptosis inducers for the treatment of colon cancer” (Eur J Med Chem, 2023).
≈ marks a conversion by molar mass, not a printed value.

Legend:
HCT-116 = experiment: Cytotoxicity against human HCT-116 cells assessed as inhibition of cell viability incubated for 48 hrs by CCK8 assay; assay type: functional, cell-based; conditions: HCT-116, 48 h
[1] = Kinetic solubility of compound at pH 7.4; assay type: physicochemical; conditions: buffer, read-out: Kinetic_solubility
[2] = Metabolic stability in human liver microsomes assessed as half life at 0.5 uM incubated for 45 mins by LC/MS analysis; assay type: ADME, Microsome
[3] = Metabolic stability in human liver microsomes assessed as intrinsic clearance at 0.5 uM incubated for 45 mins by LC/MS analysis; assay type: ADME, Microsome; conditions: read-out: CLH
[4] = Metabolic stability in human liver microsomes assessed as hepatic clearance rate at 0.5 uM incubated for 45 mins by LC/MS analysis; assay type: ADME, Microsome

Row | SMILES | IC50 (HCT-116) [µM] | other results
1 | C#CC(=O)CCCC(=O)c1ccc2c(c1)C(=O)/C(=C1/C(=O)Nc3ccccc31)N2 | 7.4 | –
2 | C#CC(=O)CCC(=O)c1ccc2c(c1)C(=O)/C(=C1/C(=O)Nc3ccccc31)N2 | > 20 | –
3 | O=C1Nc2ccccc2/C1=C1/Nc2ccccc2C1=O [INDIRUBIN] | 19.5 | solubility kinetic [1]: 4.01 µg/mL (≈ 15.3 µM); half-life at 0.5 µM [2]: 22.8 min; CLint scaled at 0.5 µM [3]: 70.2 mL/min/kg; CLhep predicted at 0.5 µM [4]: 16 mL/min/kg
4 | C=CC(=O)CCCCC(=O)c1ccc2c(c1)C(=O)/C(=C1/C(=O)Nc3ccccc31)N2 | 14.1 | –
5 | C=CC(=O)N1CCN(NC(=O)c2ccc3c(c2)C(=O)/C(=C2/C(=O)Nc4ccccc42)N3)CC1 | 12.4 | –
6 | O=C1Nc2ccccc2/C1=C1/Nc2ccc(C(=O)NCCN3CCN(C(=O)CCl)CC3)cc2C1=O | 2.27 | –
7 | O=C1Nc2ccccc2/C1=C1/Nc2ccc(C(=O)NCCC3CCN(C(=O)CCl)CC3)cc2C1=O | 0.72 | –
8 | O=C1Nc2ccccc2/C1=C1/Nc2ccc(C(=O)Nc3ccc(N4CCN(C(=O)CCl)CC4)cc3)cc2C1=O | 7.54 | –
9 | C#CC(=O)CCCCC(=O)c1ccc2c(c1)C(=O)/C(=C1/C(=O)Nc3ccccc31)N2 | 3 | –
10 | O=C1Nc2ccccc2/C1=C1/Nc2ccc(C(=O)N3CCN(C(=O)CCl)CC3)cc2C1=O | 2.31 | –
11 | O=C(CCl)CCCCC(=O)c1ccc2c(c1)C(=O)/C(=C1/C(=O)Nc3ccccc31)N2 | 1.72 | –
12 | C=CC(=O)CCCCCC(=O)c1ccc2c(c1)C(=O)/C(=C1/C(=O)Nc3ccccc31)N2 | 13.1 | –
13 | O=C(CCl)CCCC(=O)c1ccc2c(c1)C(=O)/C(=C1/C(=O)Nc3ccccc31)N2 | 3.96 | –
14 | C=CC(=O)N1CCN(C(=O)c2ccc3c(c2)C(=O)/C(=C2/C(=O)Nc4ccccc42)N3)CC1 | 17.6 | –
15 | CC(=O)N1CCC(NC(=O)c2ccc3c(c2)C(=O)/C(=C2/C(=O)Nc4ccccc42)N3)CC1 | 4.05 | –
16 | C=CC(=O)N1CCN(CCNC(=O)c2ccc3c(c2)C(=O)/C(=C2/C(=O)Nc4ccccc42)N3)CC1 | 17.5 | –
